Data from patent publication US20220031800A1, “PEPTIDES FOR TREATING NON-EXUDATIVE MACULAR DEGENERATION AND OTHER DISORDERS OF THE EYE” (Allegro Pharmaceuticals, LLC, priority 2019, published 2022).
Square brackets hold non-standard residues; d marks the D form. Peptide text beside a SMILES is read from it. Cya = N[C@@H](CS(=O)(=O)O)C(=O)O

Tested on: study eye of subjects with intermediate non-exudative AMD
Test: SD-OCT Analysis 2 (thickness, volume, map coverage of retinal layers)
Format: in vivo, human
Description: Numerous study assessments were conducted at various time points throughout the study. Included among these study assessments were; refractive eye examinations, determinations of BCVA AND low-luminance BCVA, Lanthony D-15 color vision test, measurement of intraocular pressure (IOP), Indirect ophthalmoscopy/dilated fundus examinations and spectral-domain optical coherence tomography (SD-OCT). Also, blood and saliva samples were obtained from each subject for genetic analysis. The above-listed study assessments were performed at the time points indicated in Table 1, below: The OCT scans were analyzed by two (2) unrelated experts. In Analysis #2, the OCT images of study eyes were analyzed to determine mean thickness and mean volume of numerous retinal subfields and layer segments at baseline and at Week 12 for sham eyes and at baseline and at Week 32 for risuteganib eyes, to document any significant differences between groups of eyes based on baseline measurements or changes from baseline in those measurements. In addition to the quantitative analysis of OCT images, OCT Analysis #2 included qualitative assessment of the OCT images to identify GA, pseudodrusen, and disruption of the ELM and EZ layers. FIGS. 9A, 9B and 9C illustrate the level of varying pathology within the ELM based on quantitative mapping that were also assessed, with FIG. 9A (left) showing no ELM disruption, FIG. 9B (center) showing segmental disruption, and FIG. 9C showing diffuse disruption.

[1] = baseline to Week 32, risuteganib arm
[2] = baseline to Week 32, risuteganib arm, paired-eye analysis
[3] = baseline to Week 32, risuteganib nonresponder eyes
[4] = baseline to Week 32, risuteganib responder eyes
[5] = baseline to Week 32, risuteganib super-responder eyes
[6] = change from baseline at Week 32, Risuteganib Nonresponder eyes
[7] = change from baseline at Week 32, Risuteganib Responder eyes

With `C[C@@H](O)[C@H](NC(=O)[C@H](CS(=O)(=O)O)NC(=O)CNC(=O)[C@H](CCCNC(=N)N)NC(=O)CN)C(=O)N1CCC[C@H]1C(=O)O` [risuteganib, Glycyl-L-arginylglycyl-3-sulfo-L-alanyl-L-threonyl-L-proline] (H-GRG[Cya]TP-OH) the “Change in ELM-RPE mid subfield volume” value [1] was −0.002 mm^3, the “Change in ONL-RPE central subfield volume” value [1] was −0.005 mm^3 and the “Change in ONL-RPE mid subfield volume” value [1] was −0.020 mm^3. The “Change in mean ONL-RPE mid subfield thickness” value [1] was −6.441 μm, the “Change in mean total retinal mid subfield thickness” value [1] was −2.548 μm and the “Change in total retinal mid subfield volume” value [1] was −0.008 mm^3. For the same compound, the “Difference in map coverage, 0 μm RPE-BM” value [1] was 1.282%, the “Difference in map coverage, 50 μm RPE-BM” value [1] was −2.644% and the “Difference in map coverage, 150 μm RPE-BM” value (“Difference … 150 μm RPE-BM” for short) [1] was 2.739%. The “Change in mean ELM-RPE central subfield thickness” value [2] was −2.912 μm, the “Change in mean ONL-RPE central subfield thickness” value [2] was −7.216 μm and the “Change in ONL-RPE mid subfield volume” value [3] was −0.020 mm^3. For the same compound, the “Change in RPE-BM volume” value [3] was 0.037 mm^3, the “Change in mean ONL-RPE mid subfield thickness” value [3] was −6.320 μm and the “Change in mean total retinal central subfield thickness” value [3] was −5.981 μm. The “Change in mean total retinal mid subfield thickness” value [3] was −4.046 μm, the “Change in total retinal central subfield volume” value [3] was −0.004 mm^3 and the “Change in total retinal mid subfield volume” value [3] was −0.012 mm^3. The “Change in total retinal volume” value [3] was 0.091 mm^3, the “Difference in map coverage, <10 μm EZ” value [3] was 1.332% and the “Difference in map coverage, <20 μm EZ” value [3] was 1.288%. For the same compound, the “Change in ELM-RPE central subfield volume” value [4] was −0.002 mm^3, the “Change in RPE-BM volume” value [4] was −0.049 mm^3 and the “Difference in map coverage, 50 μm RPE-BM” value [4] was −3.494%. For the same compound, the “Difference … 150 μm RPE-BM” value [4] was 3.335%, the “Change in mean ELM-RPE central subfield thickness” value (baseline to Week 32, risuteganib responder eyes, paired-eye analysis) was −3.102 μm and the “Change in ELM-RPE central subfield volume” value [5] was −0.003 mm^3. The “Difference … 150 μm RPE-BM” value [5] was 2.943%, the “Change in mean ELM-RPE central subfield thickness” value (baseline to Week 32, risuteganib super-responder eyes, paired-eye analysis) was −3.461 μm and the “Change in mean thickness, ELM-EZ central subfield” value [6] was −1.332 μm. For the same compound, the “Change in mean thickness, ELM-EZ mid subfield” value [6] was 0.754 μm, the “Change in mean thickness, ELM-RPE central subfield” value [6] was −2.722 μm and the “Change in mean thickness, ELM-RPE foveal center” value [6] was −12.189 μm. For the same compound, the “Change in mean thickness, ELM-RPE mid subfield” value [6] was −1.044 μm, the “Change in mean thickness, EZ-RPE central subfield” value [6] was −1.390 μm and the “Change in mean thickness, EZ-RPE foveal center” value [6] was −1.789 μm. The “Change in mean thickness, EZ-RPE mid subfield” value [6] was −1.798 μm, the “Change in mean thickness, Inner retina central subfield” value [6] was 1.896 μm and the “Change in mean thickness, Inner retina mid subfield” value [6] was 2.274 μm. For the same compound, the “Change in mean thickness, ONL-EZ central subfield” value [6] was −6.486 μm, the “Change in mean thickness, ONL-EZ mid subfield” value [6] was −4.522 μm and the “Change in mean thickness, ONL-RPE central subfield” value [6] was −7.877 μm. The “Change in mean thickness, ONL-RPE foveal center” value [6] was −7.626 μm, the “Change in mean thickness, ONL-RPE mid subfield” value [6] was −6.320 μm and the “Change in mean thickness, RPE-BM central subfield” value [6] was −0.118 μm. For the same compound, the “Change in mean thickness, RPE-BM foveal center” value [6] was −3.740 μm, the “Change in mean thickness, RPE-BM mid subfield” value [6] was 1.114 μm and the “Change in mean thickness, Total retinal central subfield” value [6] was −5.981 μm. For the same compound, the “Change in mean thickness, Total retinal foveal center” value [6] was −9.112 μm, the “Change in mean thickness, Total retinal mid subfield” value [6] was −4.046 μm and the “Change in volume, ELM-EZ central subfield” value [6] was −0.001 mm^3. For the same compound, the “Change in volume, ELM-EZ mid subfield” value [6] was 0.002 mm^3, the “Change in volume, ELM-RPE” value [6] was 0.009 mm^3 and the “Change in volume, ELM-RPE central subfield” value [6] was −0.002 mm^3. For the same compound, the “Change in volume, ELM-RPE mid subfield” value [6] was −0.003 mm^3, the “Change in volume, EZ-RPE” value [6] was 0.005 mm^3 and the “Change in volume, EZ-RPE central subfield” value [6] was −0.001 mm^3. For the same compound, the “Change in volume, EZ-RPE mid subfield” value [6] was −0.006 mm^3, the “Change in volume, ONL-EZ central subfield” value [6] was −0.005 mm^3 and the “Change in volume, ONL-EZ mid subfield” value [6] was −0.014 mm^3. The “Change in volume, ONL-RPE” value [6] was −0.026 mm^3, the “Change in volume, ONL-RPE central subfield” value [6] was −0.006 mm^3 and the “Change in volume, ONL-RPE mid subfield” value [6] was −0.020 mm^3. For the same compound, the “Change in volume, RPE-BM” value [6] was 0.037 mm^3, the “Change in volume, RPE-BM central subfield” value [6] was 0.000 mm^3 and the “Change in volume, RPE-BM mid subfield” value [6] was 0.004 mm^3. The “Change in volume, Total retinal” value [6] was 0.091 mm^3, the “Change in volume, Total retinal central subfield” value [6] was −0.004 mm^3 and the “Change in volume, Total retinal mid subfield” value [6] was −0.012 mm^3. The “Map coverage, 0 μm EZ” value [6] was 1.469%, the “Map coverage, 0 μm RPE-BM” value [6] was 1.465% and the “Map coverage, 10 μm EZ” value [6] was 1.332%. The “Map coverage, 20 μm EZ” value [6] was 1.288%, the “Map coverage, 50 μm RPE-BM” value [6] was −1.794% and the “Map coverage, 150 μm RPE-BM” value [6] was 2.143%. For the same compound, the “Map coverage, 250 μm RPE-BM” value [6] was 0.000%, the “Change in mean thickness, ELM-EZ central subfield” value [7] was −2.322 μm and the “Change in mean thickness, ELM-EZ mid subfield” value [7] was −0.967 μm. The “Change in mean thickness, ELM-RPE central subfield” value [7] was −3.102 μm, the “Change in mean thickness, ELM-RPE foveal center” value [7] was 0.000 μm and the “Change in mean thickness, ELM-RPE mid subfield” value [7] was −2.141 μm. The “Change in mean thickness, EZ-RPE central subfield” value [7] was −0.779 μm, the “Change in mean thickness, EZ-RPE foveal center” value [7] was 0.975 μm and the “Change in mean thickness, EZ-RPE mid subfield” value [7] was −1.174 μm. The “Change in mean thickness, Inner retina central subfield” value [7] was 5.864 μm, the “Change in mean thickness, Inner retina mid subfield” value [7] was 5.512 μm and the “Change in mean thickness, ONL-EZ central subfield” value [7] was −5.775 μm. The “Change in mean thickness, ONL-EZ mid subfield” value [7] was −5.386 μm and the “Change in mean thickness, ONL-RPE central subfield” value [7] was −6.555 μm.
